Reference: US20230406804A1, “PROTEIN KINASE INHIBITORS” (Xavier University of Louisiana, priority 2018, published 2023)
Entries after “also recorded” stand apart in the source; their conditions may differ.

Assays:
HER2 residue Y1248 = test: Western blot of HER2 autophosphorylation; type: cell-based; conditions: 10 μM, 2 h; MCF7/pcDNA, MCF7/HER2, MCF7/HER2Δ16
Source text: (§1) HER2 is a member of the erbB family of tyrosine kinases, which is comprised of four partial homologous transmembrane receptors: EGFR/HER1 (erbB1), HER2 (erbB2/neu), HER3 (erbB3), and HER4 (erbB4). […] Ligand binding induces homo- or hetero-dimerization through disulfide bond linkage, and leads to receptor activation and tyrosine auto-phosphorylation. HER2 is a preferred dimerization partner due to its high catalytic activity and forms potent heterodimers with EGFR and HER3. HER2, with its intrinsic kinase activity can transphosphorylate other members of the erbB family. HER2 and HERΔ16 are overexpressed in the breast cancer cell lines that have been used in this study, leading to the kinases being constitutively active. Upon dimerization, the constitutively active HER2 and HER2Δ16 receptors can transphosphorylate coexpressed EGFR. The levels of phosphorylated HER2 in the parental MCF-7 cell line were less, resulting in its lack of dimerization with EGFR and its transphosphorylation. Western blots were performed to determine the ability of the compounds to inhibit the activation of the HER2 receptor (FIG. 7). The total and phosphorylated protein were detected upon treatment of each of the cells lines with the compounds 6, 7, 8a+8b, 9, 15, 25, 26, 27 and 28 (2-methyl-4,6-dinitro-1H-indene-1,3(2H)-dione) along with the positive control lapatinib at 10 μM concentration for 2 h. […] Compounds 26 and 28 from FIG. 5 were used as negative controls.

EGFR residue Y1068 = target: T1, EGFR residue Y1068 (Homo sapiens, UniProt P00533); test: Western blot of EGFR transphosphorylation; type: cell-based; conditions: 10 μM, 2 h; MCF7/pcDNA, MCF7/HER2, MCF7/HER2Δ16
T1 construct: endogenous in cells; host or cells: MCF-7/pcDNA, MCF-7/HER2, MCF-7/HER2Δ16
Source text: as §1

[1] = test system: BT20, MDA-MB-468, MDA-MB-231, SKBR3, BT474, SUM 190PT and SUM 225CWN; test: Growth inhibition of a panel of breast cancer cell lines; type: cell-based; conditions: triple negative, trastuzumab sensitive and trastuzumab resistant cell lines; read-out: IC50 growth inhibition, range over breast cancer cell line panel
Source text: (§2) Compound 7 was taken up for further analysis of its ability to inhibit the growth of a panel of breast cancer cell lines of varied types. The panel included the triple negative cell lines BT20, MDA-MB-468 and MDA-MB-231, the trastuzumab sensitive cell lines SKBR3 and BT474, and the trastuzumab resistant cell lines SUM 190PT and SUM 225CWN (FIG. 9).

MDA-MB-231 = test: as above; type: cell-based
Source text: as §2

[2] = target: mitogen activated protein kinase kinase kinase 8 (MAP3K8) (Homo sapiens, UniProt P41279); test: Cross kinase panel high-throughput assay; type: biochemical
Method: (§3) Compound 7 was then subjected to a cross kinase panel high-throughput assay at 10 μM concentration, at Life Technologies, to determine the selectivity of kinase inhibition (FIG. 10). A panel of 120 disease relevant kinases (available with Life Technologies) were studied. 11 kinases were inhibited at 80% or more-protein kinase B 1/2 (also known as AKT1/2), Aurora kinases A/B (AurK A/B), checkpoint kinase 2 (CHEK2), feline sarcoma kinase (FES), fibroblast growth factor 1 (FGFR1), I kappa B kinase B/E (IKK B/E), mitogen activated protein kinase kinase 1 (MAP2K1), mitogen activated protein kinase kinase kinase 8 (MAP3K8), Never in Mitosis (NIMA) related kinase 2 (NEK2), polo-like kinase 1/3 (PLK1/3), serum/glucocorticoid regulated kinase 1 (SGK1) and TEK tyrosine kinase. All these kinases except for CHEK2 are reported to have tumorigenic roles in breast cancer.

[3] = test system: I kappa B kinase B/E (IKK B/E); test: Cross kinase panel high-throughput assay; type: biochemical; conditions: 10 μM
Method: as §3

[4] = target: feline sarcoma kinase (FES) (Homo sapiens, UniProt P07332); test: Cross kinase panel high-throughput assay; type: biochemical
Method: as §3

[5] = target: fibroblast growth factor 1 (FGFR1) (Homo sapiens, UniProt P11362); test: Cross kinase panel high-throughput assay; type: biochemical
Method: as §3

[6] = target: checkpoint kinase 2 (CHEK2) (Homo sapiens, UniProt O96017); test: Cross kinase panel high-throughput assay; type: biochemical
Method: as §3

[7] = test system: Aurora kinases A/B (AurK A/B); test: Cross kinase panel high-throughput assay; type: biochemical; conditions: 10 μM
Method: as §3

TEK tyrosine kinase = TEK tyrosine kinase (Homo sapiens, UniProt Q02763); test: Cross kinase panel high-throughput assay; type: biochemical
Method: as §3

[8] = test system: protein kinase B 1/2 (AKT1/2); test: Cross kinase panel high-throughput assay; type: biochemical; conditions: 10 μM
Method: as §3

[9] = test system: polo-like kinase 1/3 (PLK1/3); test: Cross kinase panel high-throughput assay; type: biochemical; conditions: 10 μM
Method: as §3

[10] = target: mitogen activated protein kinase kinase 1 (MAP2K1) (Homo sapiens, UniProt Q02750); test: Cross kinase panel high-throughput assay; type: biochemical
Method: as §3

[11] = target: T2, Never in Mitosis (NIMA) related kinase 2 (NEK2) (Homo sapiens, UniProt P51955); test: Cross kinase panel high-throughput assay; type: biochemical
T2 sequence (P51955 1-445): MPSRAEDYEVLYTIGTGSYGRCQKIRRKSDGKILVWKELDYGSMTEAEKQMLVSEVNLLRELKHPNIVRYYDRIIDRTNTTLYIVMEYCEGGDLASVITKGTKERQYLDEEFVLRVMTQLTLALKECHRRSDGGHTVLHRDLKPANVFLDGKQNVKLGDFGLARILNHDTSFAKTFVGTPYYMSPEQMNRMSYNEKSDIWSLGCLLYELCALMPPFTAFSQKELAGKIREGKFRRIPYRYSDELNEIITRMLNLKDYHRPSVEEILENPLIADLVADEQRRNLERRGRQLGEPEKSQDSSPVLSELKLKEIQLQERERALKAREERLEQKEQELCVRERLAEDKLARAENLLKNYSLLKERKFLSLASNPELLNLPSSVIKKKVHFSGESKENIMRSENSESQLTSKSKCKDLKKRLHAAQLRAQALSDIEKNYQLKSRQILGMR
Method: as §3

[12] = target: T3, serum/glucocorticoid regulated kinase 1 (SGK1) (Homo sapiens, UniProt O00141); test: Cross kinase panel high-throughput assay; type: biochemical
T3 sequence (O00141 1-431): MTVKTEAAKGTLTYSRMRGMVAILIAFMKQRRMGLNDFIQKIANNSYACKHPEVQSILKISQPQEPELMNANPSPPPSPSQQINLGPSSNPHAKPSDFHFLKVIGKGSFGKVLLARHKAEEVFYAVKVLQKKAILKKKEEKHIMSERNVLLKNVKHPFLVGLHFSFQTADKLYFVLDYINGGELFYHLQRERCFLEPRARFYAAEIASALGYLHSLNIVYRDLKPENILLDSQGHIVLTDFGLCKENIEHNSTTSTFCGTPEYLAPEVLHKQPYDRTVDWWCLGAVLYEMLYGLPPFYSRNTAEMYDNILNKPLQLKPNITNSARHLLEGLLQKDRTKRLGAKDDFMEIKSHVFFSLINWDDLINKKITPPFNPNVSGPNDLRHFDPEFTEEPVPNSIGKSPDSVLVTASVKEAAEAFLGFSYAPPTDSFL
Method: as §3

MCF-7/pcDNA = test: CellTiter-Glo cell viability, IC50; type: cell-based; conditions: Homo sapiens, MCF7, 48 h treatment
Method: (§4) The antagonistic activities of the compounds were tested in an estrogen receptor positive (ER+) breast cancer cell line, MCF7 breast cancer cell lines expressing HER2, HER2Δ16 and empty vector. Lapatinib was used as the positive control. The cells were treated with the compounds at 10 μM concentration for 48 h. After treatment, cell viability was tested using the CellTiter-Glo Assay (Promega). […] The […] best compounds 7, 9, the mixture of 8a+8b, 25 and 27 were then taken up for further studies.

MCF-7/HER2 = test: CellTiter-Glo cell viability, IC50; type: cell-based; conditions: Homo sapiens, MCF7, 48 h treatment
Method: as §4

MCF-7/HER2Δ16 = test: CellTiter-Glo cell viability, IC50; type: cell-based; conditions: Homo sapiens, MCF7, 48 h treatment, read-out: IC50 MCF-7/HER2D16
Method: as §4

[13] = test system: MCF7 breast cancer cell lines expressing HER2, HER2Δ16 and empty vector; test: High-throughput cell viability screen at 10 μM (CellTiter-Glo); type: cell-based; conditions: for suppression of cell viability / inhibition in the high-throughput assay: 48 h
Method: The antagonistic activities of the compounds were tested in an estrogen receptor positive (ER+) breast cancer cell line, MCF7 breast cancer cell lines expressing HER2, HER2Δ16 and empty vector. Lapatinib was used as the positive control. The cells were treated with the compounds at 10 μM concentration for 48 h. After treatment, cell viability was tested using the CellTiter-Glo Assay (Promega).

T1 sequence (P00533 25-1210): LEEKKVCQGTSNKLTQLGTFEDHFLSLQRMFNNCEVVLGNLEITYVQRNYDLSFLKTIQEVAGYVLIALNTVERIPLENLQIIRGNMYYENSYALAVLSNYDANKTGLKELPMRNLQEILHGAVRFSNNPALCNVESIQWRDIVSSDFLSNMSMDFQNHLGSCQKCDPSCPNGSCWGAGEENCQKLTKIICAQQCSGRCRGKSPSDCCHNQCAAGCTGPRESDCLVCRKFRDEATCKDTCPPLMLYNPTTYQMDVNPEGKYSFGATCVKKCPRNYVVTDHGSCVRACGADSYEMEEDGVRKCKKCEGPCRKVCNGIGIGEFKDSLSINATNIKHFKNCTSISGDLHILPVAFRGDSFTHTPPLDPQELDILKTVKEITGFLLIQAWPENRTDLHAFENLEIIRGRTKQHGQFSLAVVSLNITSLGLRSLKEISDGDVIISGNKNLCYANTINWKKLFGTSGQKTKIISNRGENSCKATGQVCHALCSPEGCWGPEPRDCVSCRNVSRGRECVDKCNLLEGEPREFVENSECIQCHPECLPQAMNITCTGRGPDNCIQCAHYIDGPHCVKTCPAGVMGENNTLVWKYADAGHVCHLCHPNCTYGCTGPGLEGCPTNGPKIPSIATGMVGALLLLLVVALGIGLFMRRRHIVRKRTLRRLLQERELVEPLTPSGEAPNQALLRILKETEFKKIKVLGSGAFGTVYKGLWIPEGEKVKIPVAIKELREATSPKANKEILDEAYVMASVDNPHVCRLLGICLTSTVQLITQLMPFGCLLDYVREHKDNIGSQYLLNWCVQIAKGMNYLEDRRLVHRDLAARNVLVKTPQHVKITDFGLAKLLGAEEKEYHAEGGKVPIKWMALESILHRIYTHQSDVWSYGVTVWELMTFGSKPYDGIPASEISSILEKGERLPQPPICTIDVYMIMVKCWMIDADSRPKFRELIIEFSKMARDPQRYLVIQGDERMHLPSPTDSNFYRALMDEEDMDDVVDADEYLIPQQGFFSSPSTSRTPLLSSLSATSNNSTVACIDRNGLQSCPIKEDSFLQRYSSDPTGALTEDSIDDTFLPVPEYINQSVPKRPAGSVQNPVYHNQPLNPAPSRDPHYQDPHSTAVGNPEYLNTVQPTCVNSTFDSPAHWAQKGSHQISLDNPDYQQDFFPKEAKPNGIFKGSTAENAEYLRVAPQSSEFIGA
Chain of feline sarcoma kinase (FES) (P07332 whole entry): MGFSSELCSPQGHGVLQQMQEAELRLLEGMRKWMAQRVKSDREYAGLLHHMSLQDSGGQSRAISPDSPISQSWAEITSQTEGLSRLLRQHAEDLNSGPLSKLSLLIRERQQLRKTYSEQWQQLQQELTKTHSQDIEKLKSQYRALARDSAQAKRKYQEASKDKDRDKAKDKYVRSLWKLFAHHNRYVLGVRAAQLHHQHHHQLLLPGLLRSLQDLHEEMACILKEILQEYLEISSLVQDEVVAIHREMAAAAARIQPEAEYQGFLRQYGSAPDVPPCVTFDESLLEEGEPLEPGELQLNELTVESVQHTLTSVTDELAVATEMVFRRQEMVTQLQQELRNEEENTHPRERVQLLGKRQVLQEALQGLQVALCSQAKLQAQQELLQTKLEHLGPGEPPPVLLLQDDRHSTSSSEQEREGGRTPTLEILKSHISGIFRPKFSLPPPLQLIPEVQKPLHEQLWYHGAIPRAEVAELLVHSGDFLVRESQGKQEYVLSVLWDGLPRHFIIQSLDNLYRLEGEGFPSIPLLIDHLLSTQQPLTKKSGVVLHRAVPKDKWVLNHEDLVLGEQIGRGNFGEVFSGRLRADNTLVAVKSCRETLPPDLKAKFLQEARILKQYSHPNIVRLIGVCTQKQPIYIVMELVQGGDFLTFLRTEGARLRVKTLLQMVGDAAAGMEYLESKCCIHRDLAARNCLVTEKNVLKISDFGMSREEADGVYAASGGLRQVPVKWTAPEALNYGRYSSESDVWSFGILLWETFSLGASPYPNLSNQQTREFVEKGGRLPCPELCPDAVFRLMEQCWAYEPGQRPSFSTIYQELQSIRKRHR
Chain of fibroblast growth factor 1 (FGFR1) (P11362 22-822): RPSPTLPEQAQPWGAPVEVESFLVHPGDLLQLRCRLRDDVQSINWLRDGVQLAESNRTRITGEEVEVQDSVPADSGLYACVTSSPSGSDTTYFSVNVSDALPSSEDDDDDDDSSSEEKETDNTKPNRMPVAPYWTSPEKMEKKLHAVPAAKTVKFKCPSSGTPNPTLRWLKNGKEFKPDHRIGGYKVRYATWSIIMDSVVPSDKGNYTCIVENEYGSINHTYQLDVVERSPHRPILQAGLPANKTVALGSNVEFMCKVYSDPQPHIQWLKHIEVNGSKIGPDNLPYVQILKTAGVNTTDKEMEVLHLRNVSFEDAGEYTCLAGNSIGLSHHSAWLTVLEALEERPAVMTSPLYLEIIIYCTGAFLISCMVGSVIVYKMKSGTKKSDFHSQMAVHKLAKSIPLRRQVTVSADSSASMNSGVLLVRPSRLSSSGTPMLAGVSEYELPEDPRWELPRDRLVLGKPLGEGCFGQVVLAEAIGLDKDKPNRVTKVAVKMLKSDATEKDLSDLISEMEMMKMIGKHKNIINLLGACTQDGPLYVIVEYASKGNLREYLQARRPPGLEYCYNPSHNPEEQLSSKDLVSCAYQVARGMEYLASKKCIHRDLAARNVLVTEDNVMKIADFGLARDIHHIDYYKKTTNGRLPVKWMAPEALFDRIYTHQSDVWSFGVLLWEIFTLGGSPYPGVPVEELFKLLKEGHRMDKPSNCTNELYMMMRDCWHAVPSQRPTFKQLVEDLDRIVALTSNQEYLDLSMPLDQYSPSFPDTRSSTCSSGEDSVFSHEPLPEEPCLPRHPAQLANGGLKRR
Chain of mitogen activated protein kinase kinase kinase 8 (MAP3K8) (P41279 whole entry): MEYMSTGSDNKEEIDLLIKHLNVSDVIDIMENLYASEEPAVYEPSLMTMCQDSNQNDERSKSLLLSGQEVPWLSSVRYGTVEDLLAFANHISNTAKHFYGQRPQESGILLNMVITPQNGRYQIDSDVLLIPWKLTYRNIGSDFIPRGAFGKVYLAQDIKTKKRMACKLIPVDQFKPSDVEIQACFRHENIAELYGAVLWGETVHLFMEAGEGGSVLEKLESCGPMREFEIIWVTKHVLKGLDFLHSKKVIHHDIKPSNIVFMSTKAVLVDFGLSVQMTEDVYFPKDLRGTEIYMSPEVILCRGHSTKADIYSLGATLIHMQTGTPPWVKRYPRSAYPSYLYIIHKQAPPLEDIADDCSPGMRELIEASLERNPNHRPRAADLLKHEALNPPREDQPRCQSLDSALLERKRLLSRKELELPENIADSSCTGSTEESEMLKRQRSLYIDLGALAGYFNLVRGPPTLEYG
Chain of mitogen activated protein kinase kinase 1 (MAP2K1) (Q02750 whole entry): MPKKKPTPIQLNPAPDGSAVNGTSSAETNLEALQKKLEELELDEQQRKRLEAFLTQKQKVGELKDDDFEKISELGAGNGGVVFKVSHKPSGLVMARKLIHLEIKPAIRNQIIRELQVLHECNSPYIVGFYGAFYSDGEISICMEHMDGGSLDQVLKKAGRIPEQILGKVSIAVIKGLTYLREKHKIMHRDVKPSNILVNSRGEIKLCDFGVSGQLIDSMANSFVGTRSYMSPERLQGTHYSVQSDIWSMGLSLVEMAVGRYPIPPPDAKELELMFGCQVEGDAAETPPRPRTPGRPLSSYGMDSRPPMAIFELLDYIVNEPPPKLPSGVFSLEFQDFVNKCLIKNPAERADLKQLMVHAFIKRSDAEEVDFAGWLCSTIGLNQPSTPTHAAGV
Chain of TEK tyrosine kinase (Q02763 23-1124): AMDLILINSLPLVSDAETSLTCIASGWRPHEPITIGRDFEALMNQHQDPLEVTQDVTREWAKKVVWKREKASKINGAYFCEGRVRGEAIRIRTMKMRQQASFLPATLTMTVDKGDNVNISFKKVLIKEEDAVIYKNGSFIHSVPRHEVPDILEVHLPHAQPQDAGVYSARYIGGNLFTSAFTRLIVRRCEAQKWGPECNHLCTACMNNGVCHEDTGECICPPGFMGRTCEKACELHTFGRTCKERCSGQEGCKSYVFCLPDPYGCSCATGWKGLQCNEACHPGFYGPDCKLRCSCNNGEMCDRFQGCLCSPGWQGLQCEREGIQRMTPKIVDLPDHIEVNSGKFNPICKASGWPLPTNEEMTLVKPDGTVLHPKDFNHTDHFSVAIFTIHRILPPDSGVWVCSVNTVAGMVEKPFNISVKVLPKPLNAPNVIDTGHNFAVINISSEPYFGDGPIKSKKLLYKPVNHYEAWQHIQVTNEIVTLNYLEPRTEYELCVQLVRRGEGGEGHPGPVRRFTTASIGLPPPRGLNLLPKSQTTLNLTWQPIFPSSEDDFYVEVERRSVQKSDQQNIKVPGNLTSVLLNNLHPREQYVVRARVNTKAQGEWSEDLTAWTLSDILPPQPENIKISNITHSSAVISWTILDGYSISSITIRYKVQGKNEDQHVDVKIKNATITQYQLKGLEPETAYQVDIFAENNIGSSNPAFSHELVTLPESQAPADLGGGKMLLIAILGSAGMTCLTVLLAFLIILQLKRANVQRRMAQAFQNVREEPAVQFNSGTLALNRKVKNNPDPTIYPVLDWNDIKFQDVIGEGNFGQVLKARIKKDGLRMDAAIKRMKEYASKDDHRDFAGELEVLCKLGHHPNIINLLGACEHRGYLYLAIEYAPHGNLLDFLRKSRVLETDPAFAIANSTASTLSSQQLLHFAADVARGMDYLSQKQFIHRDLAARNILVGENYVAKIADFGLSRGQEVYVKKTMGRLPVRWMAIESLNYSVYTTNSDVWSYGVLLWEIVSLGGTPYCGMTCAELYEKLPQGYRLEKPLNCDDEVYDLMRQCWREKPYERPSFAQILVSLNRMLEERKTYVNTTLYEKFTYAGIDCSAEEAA

## CC1=CC(=O)c2c(O)ccc(O)c2C1=O [Compound 6, 5,8-dihydroxy-2-methylnaphthalene-1,4-dione]
HER2 residue Y1248
  inhibition of autophosphorylation at HER2-Y1248 (western blot): significantly decreased HER2 activating phosphorylation to the same extent as lapatinib; also recorded: inhibit the phosphorylation
EGFR residue Y1068
  inhibition of phosphorylation at EGFR-Y1068 (western blot): decreased; also recorded: inhibit the phosphorylation

## Cc1cc(O)c2c(c1O)C(=O)C=CC2=O [Compound 7, 5,8-dihydroxy-6-methylnaphthalene-1,4-dione]
HER2 residue Y1248
  inhibition of autophosphorylation at HER2-Y1248 (western blot): significantly decreased HER2 activating phosphorylation to the same extent as lapatinib; also recorded: inhibit the phosphorylation
[1]
  IC50: 0.123 to 2.92 µM
MDA-MB-231
  fold decrease in potency versus the other cell lines: 3-4 fold
[2]
  inhibition at 10 µM: ≥ 80%
[3]
  kinase inhibition IKK B/E: ≥ 80%
[4]
  inhibition at 10 µM: ≥ 80%
[5]
  inhibition at 10 µM: ≥ 80%
[6]
  inhibition at 10 µM: ≥ 80%
[7]
  kinase inhibition AurK A/B: ≥ 80%
TEK tyrosine kinase
  inhibition at 10 µM: ≥ 80%
[8]
  kinase inhibition AKT1/2: ≥ 80%
[9]
  kinase inhibition PLK1/3: ≥ 80%
[10]
  inhibition at 10 µM: ≥ 80%
[11]
  inhibition at 10 µM: ≥ 80%
[12]
  inhibition at 10 µM: ≥ 80%
EGFR residue Y1068
  inhibition of phosphorylation at EGFR-Y1068 (western blot): decreased; also recorded: inhibit the phosphorylation
MCF-7/pcDNA
  IC50: 0.32 µM
MCF-7/HER2
  IC50: 0.29 µM
MCF-7/HER2Δ16
  IC50: 0.51 µM

## O=C1C=C(CBr)C(=O)c2c(O)ccc(O)c21 [Compound 9, 2-(bromomethyl)-5,8-dihydroxynaphthalene-1,4-dione]
HER2 residue Y1248
  inhibition of autophosphorylation at HER2-Y1248 (western blot): significantly decreased HER2 activating phosphorylation to the same extent as lapatinib; also recorded: inhibit the phosphorylation
EGFR residue Y1068
  inhibition of phosphorylation at EGFR-Y1068 (western blot): decreased; also recorded: inhibit the phosphorylation
MCF-7/pcDNA
  IC50: 1.66 µM
MCF-7/HER2
  IC50: 1.78 µM
MCF-7/HER2Δ16
  IC50: 3.61 µM

## Cc1ccc(O)c2c1C(=O)C=CC2=O [Compound 22, 5-hydroxy-8-methylnaphthalene-1,4-dione]
MCF-7/pcDNA
  IC50: 2.93 µM
MCF-7/HER2
  IC50: 4.61 µM
MCF-7/HER2Δ16
  IC50: 9.39 µM

## Cc1cc(O)c2c(c1)C(=O)C=CC2=O [Compound 25, 5-hydroxy-7-methylnaphthalene-1,4-dione]
HER2 residue Y1248
  inhibition of autophosphorylation at HER2-Y1248 (western blot): did not show such an effect on auto-phosphorylation; also recorded: did not show notable inhibition of phosphorylation
[13]
  suppression of cell viability / inhibition in the high-throughput assay: showed notable inhibition
MCF-7/pcDNA
  IC50: 30.9 µM

## O=C1C=CC(=O)c2c(O)cc(CBr)cc21 [Compound 26, 5-hydroxy-7-bromomethylnaphthalene-1,4-dione]
HER2 residue Y1248
  inhibition of autophosphorylation at HER2-Y1248 (western blot): did not show such an effect on auto-phosphorylation; also recorded: did not show notable inhibition of phosphorylation
[13]
  suppression of cell viability / inhibition in the high-throughput assay: showed notable inhibition

## COc1cc(C)cc2c1C(=O)C=CC2=O [Compound 27, 5-methoxy-7-methylnaphthalene-1,4-dione]
HER2 residue Y1248
  inhibition of autophosphorylation at HER2-Y1248 (western blot): did not show such an effect on auto-phosphorylation; also recorded: did not show notable inhibition of phosphorylation
[13]
  suppression of cell viability / inhibition in the high-throughput assay: showed notable inhibition
MCF-7/pcDNA
  IC50: 4.94 µM
MCF-7/HER2
  IC50: 3.18 µM
MCF-7/HER2Δ16
  IC50: 7.3 µM

## CC1C(=O)c2cc([N+](=O)[O-])cc([N+](=O)[O-])c2C1=O (stereo not shown) [Compound 28, 2-methyl-4,6-dinitro-1H-indene-1,3(2H)-dione]
HER2 residue Y1248
  inhibition of autophosphorylation at HER2-Y1248 (western blot): shows significant phosphorylation
[13]
  suppression of cell viability / inhibition in the high-throughput assay: did not show notable growth inhibition
EGFR residue Y1068
  inhibition of phosphorylation at EGFR-Y1068 (western blot): shows significant phosphorylation

## CS(=O)(=O)CCNCc1ccc(-c2ccc3ncnc(Nc4ccc(OCc5cccc(F)c5)c(Cl)c4)c3c2)o1 [Lapatinib, reference compound]
[13]; Homo sapiens, MCF7, 48 h
  viability at 10 µM: < 70%
MCF-7/pcDNA
  IC50: 15.7 µM
MCF-7/HER2
  IC50: 15.8 µM
MCF-7/HER2Δ16
  IC50: 19.2 µM
